Source: patent US20180362456A1, “NEW COMPOUNDS WITH ANTIOXIDANT AND ANTIAGING ACTIVITY” (EMS S/A, priority 2015, published 2018)

Tests used:
free radicals [1] = experiment: Antioxidant activity, DCA fluorimetric probe, UVA treatments; format: cell-based
Experimental: (§1) The antioxidant power of compounds described in examples 1 and 2 was tested in two different tests, one for the scavenger activity and one for the antioxidant activity. The method is based on the fluorimetric probe 2′,7′-dichlorofluorescein diacetate (DCA) that becomes fluorescent only when it is oxidized by free radicals.

[2] = Neutral Red Uptake cytotoxicity test; format: cell-based; conditions: mouse, Balb3T3 cells
Experimental: (§2) The citotoxicity of compounds described in examples 1 and 2 was tested with the test Neutral Red Uptake to determine the IC50 values. To better define the cytotoxic potential also the lactate dehydrogenase (LDH) release was tested to verify the action on cell membrane permeability. Test were performed according to DB-ALM Protocol n L39Balb3T3 Red Uptake cytotoxicity and ISO 10993-5:2009.

Balb3T3 [3] = experiment: Neutral Red Uptake cytotoxicity test; format: cell-based
Experimental: as §2

free radicals [4] = experiment: Scavenger activity, DCA fluorimetric probe, UVA treatments; format: cell-based
Experimental: as §1

Balb3T3 [5] = experiment: Lactate dehydrogenase (LDH) release, cell membrane permeability; format: cell-based; parameters: activity on cell membrane: dose or concentration left out as unconfirmed; conditions: for LDH release, % of total enzyme contained in the cells: 14 hours exposition
Experimental: as §2

[6] = In vitro skin permeation, static Franz diffusion cells (OECD 428); format: in vitro ADME; conditions: 1% solution, 5 mg/cm2 on human skin, 24 hours, unocclusive
From the text: The in vitro skin permeation experiments were developed and validated according to the Organization for Economic Cooperation and Development adopted guideline 428 (OECD guideline for the testing of chemicals. Skin absorption: in vitro method. Guideline 428 (Paris, April 2004, updated January 2011)). Briefly, static Franz diffusion cells were set up with human skin samples according with OECD and SCSS guidelines. A simple formulation containing 1% of compound of example 1 in solution was applied topically on human skin samples (5 mg/cm2) for 24 hours in an unocclusive conditions. At the end of the exposure time the Franz diffusion cells were dismantled and the distribution of the compound was measured on the skin surface, in the stratum corneum and in the rector fluid. An extraction method was developed and the day after the extraction process, all the samples were filtered through 0.22 μm membrane filter into HPLC vials. The samples of compounds of example 1, together with known concentration standards were assayed by HPLC-UV (Waters, USA). The average amount measured in the dermis was 2% of applied dose and in the receptor fluid was 3% of the applied dose. Therefore, the calculated average dermal absorption for compound 1 was 5%.

LDH release, % of total enzyme contained in the cells (Balb3T3 [5]; 1 mM) [%] | average amount measured in the dermis [6] | average amount measured in the receptor fluid [6] | calculated average dermal absorption [6] [%] | LDH release, % of total enzyme contained in the cells (Balb3T3 [5]; 0.2 mM) [%] | LDH release, % of total enzyme contained in the cells (Balb3T3 [5]; 0.5 mM) [%] | Structure (SMILES) | inhibition at 25 µM (free radicals [1]; 0.025 mM, read-out: inhibition of free radical formation (antioxidant activity)) [%] | IC50 [2] [µM] | overall biocompatibility (Balb3T3 [3]) | reduction of free radical formation (scavenger action) (free radicals [4]; after first UVA treatment) [%] | activity on cell membrane (Balb3T3 [5]) | inhibition of free radical formation (antioxidant efficacy) (free radicals [1]; 0.1 mM effective dose, after 5 treatments UVA) | reduction of the formation of free radicals (scavenger activity), on average (free radicals [4]; 0.004 mM, after 5 treatments with UVA) [%]
12.3 |  |  |  |  |  | C=CCSCC(NC(=O)C1CCC(=O)N1)C(=O)OC [Example 2, L-Pyroglutamyl-(R)-3-Allylsulfanyl-2-amino-propionic Acid Methyl Ester] | 25.6 | > 3000 | very biocompatible | 23.5 | some slight activity on cell membrane |  | 
 | 2 % of applied dose | 3 % of the applied dose | 5 | 13.0 | 13.2 | C=CCSCC(N)C(=O)Oc1ccc(/C=C/c2cc(OC(=O)C(N)CSCC=C)cc(OC(=O)C(N)CSCC=C)c2)cc1.Cl.Cl.Cl (stereo not drawn) [Example 1, (E)-1,1′-((5-(4-((3-(allylthio)-2-ammoniopropanoyl)oxy)styryl)-1,3-phenylene)bis(oxy))bis(3-(allylthio)-1-oxopropan-2-aminium) Chloride] |  | 113 |  |  | not highlighted a specific activity on cell membrane | more than 50% | 41
